Assay results published in patent publication US9713613B2, “Methods and compositions for the treatment of cancer and related hyperproliferative disorders” (priority 2007, dated 2017).

Experiments:
SCAP = biological target: T1, SCAP (Cricetulus griseus, UniProt P97260); test: Binding assay, biotinylated fatostatin on Neutravidine-agarose beads, CHO-K1 membrane extract; design: species or system Chinese hamster; conditions: not bound: SREBP-1, SREBP-2, ATF6
T1 construct: endogenous in cells; host or cells: CHO-K1 (membrane fraction extracted with 0.1% FOS-Choline 10)
T1 sequence (P97260 1-1276): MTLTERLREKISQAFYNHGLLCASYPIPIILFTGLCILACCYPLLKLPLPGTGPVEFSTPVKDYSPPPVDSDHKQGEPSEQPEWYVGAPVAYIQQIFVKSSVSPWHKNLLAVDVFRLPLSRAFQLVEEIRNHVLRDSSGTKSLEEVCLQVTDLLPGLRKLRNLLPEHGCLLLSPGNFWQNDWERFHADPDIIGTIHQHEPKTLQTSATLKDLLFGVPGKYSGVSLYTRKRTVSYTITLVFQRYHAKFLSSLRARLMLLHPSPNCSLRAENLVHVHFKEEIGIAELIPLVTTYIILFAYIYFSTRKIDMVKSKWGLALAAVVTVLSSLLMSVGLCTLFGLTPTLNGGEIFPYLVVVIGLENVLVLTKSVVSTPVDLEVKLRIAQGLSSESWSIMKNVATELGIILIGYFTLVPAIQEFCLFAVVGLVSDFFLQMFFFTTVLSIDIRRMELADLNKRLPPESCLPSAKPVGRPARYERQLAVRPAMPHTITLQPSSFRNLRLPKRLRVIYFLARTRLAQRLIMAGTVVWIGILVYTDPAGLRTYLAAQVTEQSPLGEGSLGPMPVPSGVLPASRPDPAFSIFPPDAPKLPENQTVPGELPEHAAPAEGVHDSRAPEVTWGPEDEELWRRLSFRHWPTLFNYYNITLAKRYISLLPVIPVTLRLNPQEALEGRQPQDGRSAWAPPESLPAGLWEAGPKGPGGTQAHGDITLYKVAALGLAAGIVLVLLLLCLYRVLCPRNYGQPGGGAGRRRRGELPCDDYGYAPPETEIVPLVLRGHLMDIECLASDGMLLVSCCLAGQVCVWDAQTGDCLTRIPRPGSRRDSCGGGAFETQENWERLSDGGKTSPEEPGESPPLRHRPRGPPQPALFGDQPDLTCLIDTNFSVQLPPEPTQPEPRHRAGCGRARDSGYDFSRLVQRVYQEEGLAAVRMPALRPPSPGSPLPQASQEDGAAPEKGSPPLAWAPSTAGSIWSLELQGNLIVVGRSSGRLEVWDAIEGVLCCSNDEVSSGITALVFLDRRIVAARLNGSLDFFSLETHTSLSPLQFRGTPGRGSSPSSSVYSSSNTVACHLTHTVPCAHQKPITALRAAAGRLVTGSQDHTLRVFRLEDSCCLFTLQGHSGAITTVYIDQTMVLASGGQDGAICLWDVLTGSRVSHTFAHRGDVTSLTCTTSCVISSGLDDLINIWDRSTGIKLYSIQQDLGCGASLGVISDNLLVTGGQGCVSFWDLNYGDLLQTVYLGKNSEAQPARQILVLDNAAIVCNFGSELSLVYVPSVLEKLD
Description: The selective ER localization implies that fatostatin binds to a protein in the ER; the most likely candidate is SCAP, the target of cholesterol for the control of SREBP (Radhakrishnan et al., 2004). To test this hypothesis, proteins bound to a fatostatin-polyproline linker-biotin conjugate (FIG. 20A) (Sato et al., 2007) were purified from cell lysates and analyzed by western blots with antibodies against SCAP, SREBP-1, SREBP-2, and ATF6, an unrelated ER-bound transcription factor (Ye et al., 2000). […] The binding was lost upon addition of excess fatostatin, but not excess cholesterol (FIG. 20D), raising the possibility that fatostatin may interact with SCAP in a site distinct from that of cholesterol.
Binding assay. Cell membrane fractions were prepared as described in Supplementary Methods. The membrane fraction was extracted with PBS containing 0.1% FOS-Choline 10 (Hampton Research). The extract was mixed with Neutravidine-agarose beads (10 μL) saturated with biotinylated fatostatin and incubated for 1 h. The bound proteins were washed four times with PBS containing 0.1% FOS-Choline 10, boiled in 25 μL of SDS sample buffer, and subjected to western blotting. For the competition assay, saturated amounts of cholesterol or fatostatin were added to the membrane extract before incubating with the beads.

SUM159 cells = test: SUM159 cell growth, WST-1 assay, and lipogenic gene expression; format: cell-based, human
Description: Cells were seeded onto 96 well plates at a density of 10000 cells/well in 100 ul medium containing 2% charcoal stripped serum. After 24 hours, compound 19 was added to the cells at the indicated concentrations for another 48 hours. Cell viability was determined using WST-1 assay.
Cells seeded onto 96 well plates at a density of 5000 cells/well in 100 μl medium containing 2% charcoal treated serum. After 24 hours different concentrations of compound 19 were added for an additional 48 hours. Cell viability was measured using WST-1 Cell Viability and Proliferation Assay (ScienCell Research Laboratory, Carlsbad Calif.). Changes in expression levels of lipogenic genes mRNA was determined in cells that were treated with 10 μM. […] Insig2 gene which is not known to be regulated by these transcription factors was not affected by the treatment (FIG. 33B).

Structure (SMILES) | binding to SCAP (western blot of bound proteins) (SCAP) | expression levels of lipogenic genes mRNA under the control of SREBPs (SUM159 cells; 10 μM, Insig2 not affected) | cell growth / viability (SUM159 cells; different concentrations, 48 hours, 2% charcoal treated serum)
CCCc1cc(-c2nc(-c3ccc(C)cc3)cs2)ccn1 [Compound 1, 2-propyl-4-(4-p-tolylthiazol-2-yl)pyridine] | bound to SCAP | – | –
CCCc1cc(-c2nc(-c3ccc(NS(C)(=O)=O)cc3)cs2)ccn1 [Compound 19, N-(4-(2-(2-propylpyridin-4-yl)thiazol-4-yl)phenyl)methanesulfonamide] | – | significant downregulation | inhibition of cell growth and a toxic effect
